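Step 1: Grow cells in 96-well plates. Step 2: Expose to compound for 48 hours at 5 concentrations. Step 3: Interpolate endpoints linearly; if unreached, use highest concentration. Here, GI50 denotes the concentration required for 50% inhibition of growth.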 The source made the active and inactive calls. Rule as the data show it: active = GI50 up to about 1.1 µM and inactive = higher.
Experiments:
Experiment in all cases: inhibition of tumour cell growth, NCI panel, 48 h
DLD-1 = system: DLD-1
DMS-114 = system: DMS-114
DMS-273 = system: DMS-273
KM-20L2 = system: KM-20L2
LXFL 529 = system: LXFL 529
M19-MEL = system: M19-MEL
RXF 631 = system: RXF 631
SNB-78 = system: SNB-78
XF498 = system: XF498

Measured: GI50

O=C1/C(=C/c2ccc(C(=O)O)cc2)CNC/C1=C\c1ccc(C(=O)O)cc1
inactive: DLD-1 > 100 µM | DMS-114 > 100 µM | DMS-273 > 100 µM | KM-20L2 > 100 µM | LXFL 529 > 100 µM | M19-MEL > 100 µM | RXF 631 > 100 µM | SNB-78 > 100 µM | XF498 > 100 µM

Source: ChEMBL document CHEMBL1201862, “PubChem BioAssay data set” (2004)
